Data from patent US20160237106A1 (priority 2015, published 2016).

Key:
Ebola virus = assay: microbe, parasite or virus in culture; format: cell-based; conditions: Zaire ebolavirus, Vero C1008
in vitro = conditions: African green monkey

| Structure (SMILES) | EC50 (Ebola virus) [µM] | CC50 (in vitro) [µM] |
| --- | --- | --- |
| C[C@H](NP(=O)(OC[C@@]1(N=[N+]=[N-])O[C@@H](n2ccc(=O)[nH]c2=O)[C@H](O)[C@@H]1O)Oc1cccc2ccccc12)C(=O)OCc1ccccc1 (stereo partly drawn) [Compound I-6, 4′-Azidouridine-5′-(O-1-naphthyl-N-(S)-1-(benzyloxycarbonyl)ethyl phosphoramidate] | < 20 | > 50 |
| [N-]=[N+]=N[C@]1(CO)O[C@@H](n2ccc(N)nc2=O)[C@H](F)[C@@H]1O [Compound I-17, 4′-Azido-2′-deoxy-2′-fluorocytidine] | < 20 | > 50 |
| [N-]=[N+]=N[C@]1(CO)O[C@@H](n2cnc3c(=O)[nH]c(N)nc32)[C@H](F)[C@@H]1O [Compound I-47, 4′-Azido-2′-deoxy-2′-fluoroguanosine] | < 20 | > 50 |
| [N-]=[N+]=N[C@]1(CO)O[C@@H](n2cnc3c(=O)[nH]c(N)nc32)[C@H](O)[C@@H]1O [Compound I-48, 4′-Azidoguanosine] | < 50 | > 50 |
